According to PubChem BioAssay AID1963977 (Molecular Pharmacology Branch, DTP, NCI, 2024):

Tested on: 624824-186-R-J3-PDC multicell spheroids, viability
Assay: Anticancer human tumor 624824-186-R-J3-PDC patient-derived colon adenocarcinoma cell line growth inhibition [PI3K]
Conditions: for IC50: curve of first compound; for viability, T/C: stronger effect = lower value
Summary of the method: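 Complex 3D spheroids (cancer cells + endothelial HUVEC + mesenchymal stem cells); drug pairs of targeted agent x inavolisib/alpelisib/duvelisib/copanlisib; half-log series from ~Cmax, max 10 microM if Cmax unknown; endpoint viability.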

[1] = second compound 0.00316 µM, first compound 0.0316 µM
[2] = second compound 0.00316 µM, first compound 0.1 µM
[3] = second compound 0.00316 µM, first compound 0.316 µM
[4] = second compound 0.00316 µM, first compound 1 µM
[5] = second compound 0.00316 µM, first compound 3.16 µM
[6] = second compound 0.00316 µM, first compound 10 µM
[7] = second compound 0.01 µM, first compound 0.0316 µM
[8] = second compound 0.01 µM, first compound 0.1 µM
[9] = second compound 0.01 µM, first compound 0.316 µM
[10] = second compound 0.01 µM, first compound 1 µM
[11] = second compound 0.01 µM, first compound 3.16 µM
[12] = second compound 0.01 µM, first compound 10 µM
[13] = second compound 0.0316 µM, first compound 0.0316 µM
[14] = second compound 0.0316 µM, first compound 0.1 µM
[15] = second compound 0.0316 µM, first compound 0.316 µM
[16] = second compound 0.0316 µM, first compound 1 µM
[17] = second compound 0.0316 µM, first compound 3.16 µM
[18] = second compound 0.0316 µM, first compound 10 µM
[19] = second compound 0.1 µM, first compound 0.0316 µM
[20] = second compound 0.1 µM, first compound 0.1 µM
[21] = second compound 0.1 µM, first compound 0.316 µM
[22] = second compound 0.1 µM, first compound 1 µM
[23] = second compound 0.1 µM, first compound 3.16 µM
[24] = second compound 0.1 µM, first compound 10 µM
[25] = second compound 0.316 µM, first compound 0.0316 µM
[26] = second compound 0.316 µM, first compound 0.1 µM
[27] = second compound 0.316 µM, first compound 0.316 µM
[28] = second compound 0.316 µM, first compound 1 µM
[29] = second compound 0.316 µM, first compound 3.16 µM
[30] = second compound 0.316 µM, first compound 10 µM
[31] = second compound 1 µM, first compound 0.0316 µM
[32] = second compound 1 µM, first compound 0.1 µM
[33] = second compound 1 µM, first compound 0.316 µM
[34] = second compound 1 µM, first compound 1 µM
[35] = second compound 1 µM, first compound 3.16 µM
[36] = second compound 1 µM, first compound 10 µM
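Note: spheroids exposed to agents for seven days before luminescence read.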
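Throughout, for viability, T/C: luminescent signal used as a stand-in for spheroid viability; percent viability relative to DMSO vehicle control wells taken as 100%.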

C#Cc1c(F)ccc2cc(O)cc(-c3ncc4c(N5CC6CCC(C5)N6)nc(OCC56CCCN5CC(F)C6)nc4c3F)c12 (stereo not drawn) + CC(Nc1ccc2c(c1)OCCn1cc(N3C(=O)OCC3C(F)F)nc1-2)C(N)=O
IC50 (second compound 0.00316 µM): > 10 µM | IC50 (second compound 0.01 µM): > 10 µM | IC50 (second compound 0.0316 µM): > 10 µM | IC50 (second compound 0.1 µM): > 10 µM | IC50 (second compound 0.316 µM): > 10 µM | IC50 (second compound 1 µM): > 10 µM | viability, T/C [1]: 106% | viability, T/C [2]: 108% | viability, T/C [3]: 100% | viability, T/C [4]: 108% | viability, T/C [5]: 104% | viability, T/C [6]: 122% | viability, T/C [7]: 109% | viability, T/C [8]: 89.9% | viability, T/C [9]: 97.1% | viability, T/C [10]: 108% | viability, T/C [11]: 103% | viability, T/C [12]: 101% | viability, T/C [13]: 109% | viability, T/C [14]: 105% | viability, T/C [15]: 107% | viability, T/C [16]: 103% | viability, T/C [17]: 107% | viability, T/C [18]: 106% | viability, T/C [19]: 105% | viability, T/C [20]: 101% | viability, T/C [21]: 108% | viability, T/C [22]: 109% | viability, T/C [23]: 111% | viability, T/C [24]: 103% | viability, T/C [25]: 95.9% | viability, T/C [26]: 99.7% | viability, T/C [27]: 103% | viability, T/C [28]: 98% | viability, T/C [29]: 104% | viability, T/C [30]: 108% | viability, T/C [31]: 93.9% | viability, T/C [32]: 83.2% | viability, T/C [33]: 94.3% | viability, T/C [34]: 88.3% | viability, T/C [35]: 88.8% | viability, T/C [36]: 99.2%

C=CC(=O)N1CCN(c2nc(=O)n(-c3c(C)ccnc3C(C)C)c3nc(-c4c(O)cccc4F)c(F)cc23)C(C)C1 (stereo not drawn) + CC(Nc1ccc2c(c1)OCCn1cc(N3C(=O)OCC3C(F)F)nc1-2)C(N)=O
IC50 (second compound 0.00316 µM): > 10 µM | IC50 (second compound 0.01 µM): > 10 µM | IC50 (second compound 0.0316 µM): > 10 µM | IC50 (second compound 0.1 µM): > 10 µM | IC50 (second compound 0.316 µM): > 10 µM | IC50 (second compound 1 µM): > 10 µM | viability, T/C [1]: 103% | viability, T/C [2]: 94.4% | viability, T/C [3]: 98.8% | viability, T/C [4]: 88.2% | viability, T/C [5]: 99.7% | viability, T/C [6]: 105% | viability, T/C [7]: 105% | viability, T/C [8]: 99.2% | viability, T/C [9]: 96.9% | viability, T/C [10]: 94% | viability, T/C [11]: 99.6% | viability, T/C [12]: 106% | viability, T/C [13]: 97% | viability, T/C [14]: 98.5% | viability, T/C [15]: 102% | viability, T/C [16]: 96% | viability, T/C [17]: 113% | viability, T/C [18]: 99.6% | viability, T/C [19]: 91.7% | viability, T/C [20]: 97.2% | viability, T/C [21]: 107% | viability, T/C [22]: 102% | viability, T/C [23]: 107% | viability, T/C [24]: 104% | viability, T/C [25]: 90.1% | viability, T/C [26]: 96.8% | viability, T/C [27]: 94.5% | viability, T/C [28]: 94% | viability, T/C [29]: 108% | viability, T/C [30]: 98.4% | viability, T/C [31]: 95.1% | viability, T/C [32]: 83.7% | viability, T/C [33]: 87.4% | viability, T/C [34]: 87% | viability, T/C [35]: 87.4% | viability, T/C [36]: 91.3%

CC(Cn1ccc(-c2ccc(C#N)c(Cl)c2)n1)NC(=O)c1cc(C(C)O)[nH]n1 (stereo not drawn) + CC(Nc1ccc2c(c1)OCCn1cc(N3C(=O)OCC3C(F)F)nc1-2)C(N)=O
IC50 (second compound 0.00316 µM): > 10 µM | IC50 (second compound 0.01 µM): > 10 µM | IC50 (second compound 0.0316 µM): > 10 µM | IC50 (second compound 0.1 µM): > 10 µM | IC50 (second compound 0.316 µM): > 10 µM | IC50 (second compound 1 µM): > 10 µM | viability, T/C [1]: 98.3% | viability, T/C [2]: 98.6% | viability, T/C [3]: 94.7% | viability, T/C [4]: 92.7% | viability, T/C [5]: 94.6% | viability, T/C [6]: 103% | viability, T/C [7]: 93% | viability, T/C [8]: 100% | viability, T/C [9]: 115% | viability, T/C [10]: 101% | viability, T/C [11]: 103% | viability, T/C [12]: 95.5% | viability, T/C [13]: 110% | viability, T/C [14]: 96.4% | viability, T/C [15]: 97.4% | viability, T/C [16]: 107% | viability, T/C [17]: 112% | viability, T/C [18]: 99% | viability, T/C [19]: 101% | viability, T/C [20]: 97.5% | viability, T/C [21]: 93.3% | viability, T/C [22]: 102% | viability, T/C [23]: 102% | viability, T/C [24]: 91% | viability, T/C [25]: 94.2% | viability, T/C [26]: 96% | viability, T/C [27]: 101% | viability, T/C [28]: 91.4% | viability, T/C [29]: 91.5% | viability, T/C [30]: 77.8% | viability, T/C [31]: 87.6% | viability, T/C [32]: 88.2% | viability, T/C [33]: 83.8% | viability, T/C [34]: 88.7% | viability, T/C [35]: 81.9% | viability, T/C [36]: 79.1%

CC1(C)CCC(Nc2ncc(C(F)(F)F)c(-c3c[nH]c4c(P(C)(C)=O)c(C#N)ccc34)n2)CN1 (stereo not drawn) + CC(Nc1ccc2c(c1)OCCn1cc(N3C(=O)OCC3C(F)F)nc1-2)C(N)=O
IC50 (second compound 0.00316 µM): 5.18 µM | IC50 (second compound 0.01 µM): 5.16 µM | IC50 (second compound 0.0316 µM): 5.28 µM | IC50 (second compound 0.1 µM): 4.79 µM | IC50 (second compound 0.316 µM): 4.54 µM | IC50 (second compound 1 µM): 3.18 µM | viability, T/C [1]: 106% | viability, T/C [2]: 90.5% | viability, T/C [3]: 89.4% | viability, T/C [4]: 89.6% | viability, T/C [5]: 85.5% | viability, T/C [6]: 2.71% | viability, T/C [7]: 104% | viability, T/C [8]: 95.6% | viability, T/C [9]: 92.7% | viability, T/C [10]: 96.3% | viability, T/C [11]: 84.2% | viability, T/C [12]: 3.61% | viability, T/C [13]: 99.4% | viability, T/C [14]: 88.7% | viability, T/C [15]: 89.4% | viability, T/C [16]: 93.5% | viability, T/C [17]: 87.8% | viability, T/C [18]: 3.03% | viability, T/C [19]: 90% | viability, T/C [20]: 85.5% | viability, T/C [21]: 89.8% | viability, T/C [22]: 85.7% | viability, T/C [23]: 76.5% | viability, T/C [24]: 2.82% | viability, T/C [25]: 81.8% | viability, T/C [26]: 64.8% | viability, T/C [27]: 68.2% | viability, T/C [28]: 76.5% | viability, T/C [29]: 71.8% | viability, T/C [30]: 2.32% | viability, T/C [31]: 54.9% | viability, T/C [32]: 56.1% | viability, T/C [33]: 57% | viability, T/C [34]: 53.4% | viability, T/C [35]: 50.5% | viability, T/C [36]: 2.4%
